{"source": "patent US20090233326A1", "about": "“METHOD FOR INDUCTION OF THE DIFFERENTIATION OF VISCERAL FAT CELL” (priority 2006, published 2009)", "format_in_all_cases": "cell-based, rat", "key": {"adiponectin": {"system": "adiponectin", "assay": "Adiponectin content of the culture medium (ELISA)", "procedure": "The conventionally used dexamethasone-based differentiation induction system was first evaluated. 2.5 μM dexamethasone and 10 μg/mL insulin or 10 μg/mL insulin was added to the medium to allow for VSC differentiation and maturation for 7 days. […] When dexamethasone was also added to the differentiation induction culture medium, single cell enlargement was promoted (FIG. 1B), although there was no difference in the differentiation efficiency. In addition, the norepinephrine-induced triglyceride degradation reaction was reduced (data not shown).\nAfter 9-day culture with 200 ng/mL IGF-1 and different insulin concentrations, the culture medium was taken and the adiponectin content was measured by ELISA. When VSCs were cultured for 9 days with the constant presence of 200 ng/mL IGF-1 and insulin at a concentration of 10 μg/mL (lane 1), 70 ng/mL (lane 2), 22 ng/mL (lane 3), or 2.5 ng/mL (lane 4), the amount of adiponectin secretion was reduced at insulin concentrations of 70 ng/mL and above (FIG. 9A). When VSCs were cultured for the first 4 days with 200 ng/mL IGF-1 and 2.5 ng/mL insulin followed by 5 days with 200 ng/mL IGF-1 and insulin at a concentration of 10 μg/mL (lane 1), 70 ng/mL (lane 2), 22 ng/mL (lane 3), or 2.5 ng/mL (lane 4), adiponectin secretion was again reduced at insulin concentrations of 70 ng/mL and above (FIG. 9B). […]"}, "aP2 mRNA": {"system": "aP2 mRNA", "assay": "aP2 mRNA expression by real-time PCR", "procedure": "(§1) Differentiation conditions 1 to 12 in FIG. 2A correspond to the 1 to 12 in FIGS. 2B, 2C, and 2D (B: photographs after culture for 7 days; C: mRNA was separated after culture for 7 days, and the level of C/EBPα mRNA expression was measured by real-time PCR (the value on day 0 of culture was set at 1); D: the level of aP2 mRNA expression was measured by real-time PCR (the value on day 7 of culture for condition 1 was set at 1)).\n(§2) A continuous 7-day culture was carried out in a culture medium containing 200 ng/mL IGF-1 (normal concentration in human blood=150 to 250 ng/mL), and the amount of mRNA expression was then measured for C/EBPα (adipocyte differentiation marker), aP2 (adipocyte differentiation marker), and C/EBPβ (differentiation marker for undifferentiated adipocytes). The results are shown in FIG. 5 (A: photographs after culture for 7 days. 1: cultured with 200 ng/mL IGF-1 for 3 days and then with 22 ng/mL insulin for 4 days. 2: cultured with 200 ng/mL IGF-1 and 22 ng/mL insulin for 7 days. 3: cultured with 200 ng/mL IGF-1 for 7 days. The 1 to 3 corresponds to lanes 1 to 3 in FIGS. 5B to 5D. B: mRNA was separated after the 7-day culture and the amount of C/EBPα mRNA expression was measured by real-time PCR. The value for a culture of 3 days with 10 μg/mL insulin and then 4 days with 22 ng/mL insulin was set at 1. C: mRNA was separated after the 7-day culture and the amount of aP2 mRNA expression was measured by real-time PCR. The value for a culture of 3 days with 10 μg/mL insulin and then 4 days with 22 ng/mL insulin was set at 1. D: mRNA was separated after the 7-day culture and the amount of C/EBPβ mRNA expression was measured by real-time PCR. The value for a culture of 3 days with 10 μg/mL insulin and then 4 days with 22 ng/mL insulin was set at 1.).\nThe influence of various combinations of IGF-1 and insulin on VAC differentiation induction and maturation was investigated. The results are shown in FIG. 6 (A: photographs after culture for 7 days. 1: cultured with 200 ng/mL IGF-1 for 3 days and then with 2.5 ng/mL insulin for 4 days. 2: cultured with 200 ng/mL IGF-1 and 2.5 ng/mL insulin for 7 days. 3: cultured with 200 ng/mL IGF-1 for 3 days and then with 0.85 ng/mL insulin for 4 days. 4: cultured with 200 ng/mL IGF-1 and 0.85 ng/mL insulin for 7 days. B: mRNA was separated after the 7-day culture and the amount of C/EBPβ mRNA expression was measured by real-time PCR. The value for a culture of 3 days with 10 μg/mL insulin and then 4 days with 22 ng/mL insulin was set at 1. C: mRNA was separated after the 7-day culture and the amount of aP2 mRNA expression was measured by real-time PCR. The value for a culture of 3 days with 10 μg/mL insulin and then 4 days with 22 ng/mL insulin was set at 1.)."}, "adiponectin mRNA": {"system": "adiponectin mRNA", "assay": "Adiponectin mRNA expression by real-time PCR", "procedure": "The level of adiponectin mRNA expression was then examined with the aim of investigating the influence of the insulin concentration on VAC function (FIG. 3). After the VSCs had been differentiated by 10 μg/mL insulin for 3 days, they were then cultured for 4 days in the presence of 10 μg/mL insulin (lane 2), 0.2 μg/mL insulin (lane 3), 70 ng/mL insulin (lane 4), 22 ng/mL insulin (lane 5), or 7.4 ng/mL insulin (lane 6). After the 7-day culture, mRNA was separated and the amount of adiponectin mRNA expression was measured by real-time PCR. The value for the 7-day culture in the absence of insulin was set at 1. The results are shown in FIG. 3 (1: cultured for 7 days without insulin. 2: cultured for 7 days with 10 μg/mL insulin. 3: induction of differentiation for 3 days with 10 μg/mL insulin followed by culture for 4 days with 0.2 μg/mL insulin. 4: induction of differentiation for 3 days with 10 μg/mL insulin followed by culture for 4 days with 70 ng/mL insulin. 5: induction of differentiation for 3 days with 10 μg/mL insulin followed by culture for 4 days with 22 ng/mL insulin. 6: induction of differentiation for 3 days with 10 μg/mL insulin followed by culture for 4 days with 7.4 ng/mL insulin.)."}, "[1]": {"system": "VSC (visceral stromal cells=preadipocytes)", "assay": "Induction of VSC-to-VAC differentiation (lipid droplet formation, photographs after culture)", "experimental": "Mesenteric fat tissue was excised from the abdominal cavity of 3-5 week old male Sprague-Dawley rats (average body weight=100 g) and was washed three times with Hanks' balanced salt solution. The fat was minced with scissors and then incubated for 40 minutes at 37° C. in DMEM/F-12 culture medium containing 0.2% collagenase and 1.0% bovine albumin. The collagenase-digested tissue suspension was subsequently filtered through 600 μm mesh and Hanks' balanced salt solution was added. After centrifugation for 10 minutes at 800×g, the sediment was washed three times with Hanks' balanced salt solution and once with DMEM/F-12 culture medium and was then filtered through 100 μm mesh. The cell suspension thus prepared from the intraabdominal mesenteric fat was seeded to dishes at 0.5×10^5 cells/cm^2, and incubated at 37° C. and 5% CO2 in the culture medium with the indicated composition. The culture medium was changed once a day or once every two days. The culture medium was prepared by the addition of 17 mM pantothenic acid, 33 mM biotin, 100 mM ascorbic acid, 1 mM octanoic acid, 50 nM triiodothyronine, 100 unit/mL penicillin, and 100 mg/mL streptomycin to a basal culture medium of (DMEM)/F12 containing 10% NCS. Insulin and IGF-1 were added in the specified concentrations, and the resulting culture medium was used in the experiments described below."}, "C/EBPα mRNA": {"system": "C/EBPα mRNA", "assay": "C/EBPα mRNA expression by real-time PCR", "procedure": "as §1, §2\nAdditional investigations were then carried out into the IGF-1 concentration required for differentiation. Proceeding in the same manner as described above, VSCs were cultured for 7 days in the presence of 0.85 ng/mL insulin and IGF-1 at different concentrations. After culturing, mRNA was separated and the amount of C/EBPα mRNA expression was measured by real-time PCR. After culture for 7 days, mRNA was separated and the amount of C/EBPα mRNA expression and the amount of C/EBPβ mRNA expression were measured by real-time PCR. The value for the amount of mRNA expression for culture with 10 μg/mL insulin for 3 days followed by with 22 ng/mL insulin for 4 days was set at 1."}, "insulin receptor": {"system": "insulin receptor", "assay": "Insulin receptor expression by immunoblotting with anti-IR antibody", "procedure": "The amount of insulin receptor expression in the maturation process was then examined (FIG. 4). After the VSCs had been cultured for 7, 8, or 9 days, the total cell lysate (20 μg protein) was separated by SDS-PAGE and the IR was detected by immunoblotting with anti-IR antibody. In addition, actin was detected by immunoblotting with anti-actin antibody as the loading control. […] VSCs were cultured for 3 days in the presence of 10 μg/mL insulin or 200 ng/mL IGF-1, after which the total cell lysate (20 μg protein) was separated by SDS-PAGE and the insulin receptor was detected by immunoblotting with anti-insulin receptor (IR) antibody. Actin was detected by immunoblotting with anti-actin antibody as a loading control. […] After culture for 7 days, the total cell lysate (20 μg protein) was separated by SDS-PAGE and the IR was determined by immunoblotting with anti-IR antibody. Actin was detected by immunoblotting with anti-actin antibody as a loading control."}, "C/EBPβ mRNA": {"system": "C/EBPβ mRNA", "assay": "C/EBPβ mRNA expression by real-time PCR", "procedure": "as §2, with “real-time PCR. […] D: mRNA” for “real-time PCR. The value for a culture of 3 days with 10 μg/mL insulin and then 4 days with 22 ng/mL insulin was set at 1. D: mRNA”, “real-time PCR. […]” for “real-time PCR. The value for a culture of 3 days with 10 μg/mL insulin and then 4 days with 22 ng/mL insulin was set at 1.).”\nThe influence of various combinations of IGF-1 and insulin on VAC differentiation induction and maturation was investigated. […] C: mRNA was separated after the 7-day culture and the amount of aP2 mRNA expression was measured by real-time PCR. […]"}, "[2]": {"details": "7-day culture with only IGF-1 (200 ng/mL), vs 10 μg/mL insulin then 22 ng/mL insulin"}}}
{"substance": "insulin", "values": [{"measurement": "adiponectin secretion", "setting": "adiponectin; 4 days 200 ng/mL IGF-1 and 2.5 ng/mL insulin, then 5 days 200 ng/mL IGF-1 and insulin at 70 ng/mL and above", "result": "again reduced"}, {"measurement": "amount of adiponectin secretion", "setting": "adiponectin; 9 days, constant 200 ng/mL IGF-1 and insulin at 70 ng/mL and above (vs 22 or 2.5 ng/mL)", "result": "reduced"}, {"measurement": "aP2 mRNA expression level", "setting": "aP2 mRNA; 10 μg/mL insulin for 3 days, then at least 22 ng/mL insulin (condition 11), vs constant 10 μg/mL insulin", "result": "the same level"}, {"measurement": "aP2 mRNA expression level", "setting": "aP2 mRNA; 10 μg/mL insulin for 3 days, then insulin at or below 7.4 ng/mL (condition 12), vs constant 10 μg/mL insulin", "result": "less aP2 expression"}, {"measurement": "aP2 mRNA expression level", "setting": "aP2 mRNA; 10 μg/mL insulin for only 2 days (condition 5), vs constant 10 μg/mL insulin", "result": "less aP2 expression"}, {"measurement": "aP2 mRNA expression level", "setting": "aP2 mRNA; constant presence of 0.2 μg/mL insulin, vs constant 10 μg/mL insulin (condition 2)", "result": "less aP2 expression"}, {"measurement": "level of adiponectin mRNA expression", "setting": "adiponectin mRNA; 10 μg/mL insulin for 3 days then 4 days 7.4 ng/mL insulin (lane 6)", "result": "reduced"}, {"measurement": "level of adiponectin mRNA expression", "setting": "adiponectin mRNA; 7-day culture with 10 μg/mL insulin (lane 2) vs 3 days 10 μg/mL then 4 days 0.2 μg/mL to 22 ng/mL (lanes 3 to 5)", "result": "lower level"}, {"measurement": "lipid droplet formation", "setting": "[1]; 0.2 μg/mL insulin, 7 days (condition 3)", "result": "entirely absent"}, {"measurement": "lipid droplet accumulation", "setting": "[1]; 10 μg/mL insulin for 2 days followed by 0.2 μg/mL insulin, total of 7 days (condition 5)", "result": "significant decline"}, {"measurement": "lipid droplet formation", "setting": "[1]; 10 μg/mL insulin for 3 days, then insulin reduced to 22 ng/mL (condition 11)", "result": "same level"}, {"measurement": "differentiation into adipocytes (lipid droplets)", "setting": "[1]; 10 μg/mL insulin, 7 days (condition 2)", "result": "differentiation into adipocytes occurred"}, {"measurement": "fat accumulation", "setting": "[1]; 10 μg/mL insulin, VSC differentiation and maturation for 7 days", "result": "normal fat accumulation"}, {"measurement": "lipid droplet accumulation", "setting": "[1]; 3-day treatment with 10 μg/mL insulin without the ensuing 0.2 μg/mL insulin, vs system containing 0.2 μg/mL insulin", "result": "significant decline"}, {"measurement": "C/EBPα mRNA expression level", "setting": "C/EBPα mRNA; 10 μg/mL insulin for 2 days (conditions 4 and 5), 7 days", "result": "did not increase"}, {"measurement": "C/EBPα mRNA expression level", "setting": "C/EBPα mRNA; 10 μg/mL insulin for only 3 days followed by absence of insulin for 4 days (condition 6)", "result": "did rise"}, {"measurement": "C/EBPα mRNA expression level", "setting": "C/EBPα mRNA; constant presence of 0.2 μg/mL insulin (condition 3), 7 days", "result": "did not increase"}, {"measurement": "amount of insulin receptor expression", "setting": "insulin receptor; 3-day induction with 10 μg/mL insulin vs 200 ng/mL IGF-1 or 200 ng/mL IGF-1 and 22 ng/mL insulin", "result": "decline"}, {"measurement": "insulin receptor expression", "setting": "insulin receptor; 3 days 10 μg/mL insulin, maturation with 22 ng/mL, then culture with insulin at 70 ng/mL or greater vs 22 ng/mL, 7, 8 or 9 days", "result": "substantial decline"}]}
{"substance": "insulin-like growth factor-1 [IGF-1]", "values": [{"measurement": "expression of aP2 mRNA", "setting": "aP2 mRNA; [2]", "result": "increased"}, {"measurement": "amount of C/EBPβ mRNA", "setting": "C/EBPβ mRNA; 7-day culture with IGF-1 alone (200 ng/mL; FIG. 5D, lane 3)", "result": "maintained"}, {"measurement": "amount of C/EBPβ mRNA expression", "setting": "C/EBPβ mRNA; IGF-1 concentrations of 50 ng/mL or less vs 200 ng/mL IGF-1, plus 0.85 ng/mL insulin, 7 days", "result": "increased amounts of expression"}, {"measurement": "accumulation of lipid droplets", "setting": "[1]; 200 ng/mL IGF-1 alone, 7 days", "result": "not seen"}, {"measurement": "differentiation efficiency", "setting": "[1]; IGF-1 concentrations of 50 ng/mL and below, plus 0.85 ng/mL insulin, 7 days", "result": "decline"}, {"measurement": "expression of C/EBPα mRNA", "setting": "C/EBPα mRNA; [2]", "result": "increased"}, {"measurement": "amount of C/EBPα mRNA expression", "setting": "C/EBPα mRNA; as a function of the IGF-1 concentration (10 to 800 ng/mL) plus 0.85 ng/mL insulin, 7 days", "result": "no changes"}]}
